These results are taken from patent publication US10793557B2, “Sting agonist compounds” (Merck Sharp & Dohme Corp., priority 2018, dated 2020).

One test concerns the target T1, full-length HAQ STING (Homo sapiens, UniProt Q86WV6, G230A/H232R/R293Q/R71H).
T1 construct: AviTag (after GG linker) (C); HRV3C cleavage site (after GS linker) (C); HIS8 (C); made in house; host or cells: Trichoplusia ni (Hi-Five) insect cells infected with baculovirus (virus generated and amplified in Sf21 cells); used as a washed membrane preparation
In words: 3H-cGAMP filtration binding assay (HAQ STING). Conditions: for EC50: competition with tritiated cGAMP, HAQ STING membrane. The procedure, abridged:
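Hi-Five (T. ni) membranes overexpressing the STING variant (2.2 ug/ml working) preincubated with compound 60 min at RT in PBS, then [3H]cGAMP (8 nM working stock) added for 60 min at RT. Bound radioactivity captured on GF/B filters and counted by scintillation; EC50 from 4-parameter fit of control-normalized activity.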

A further test has as its target T2, full-length WT STING (Homo sapiens, UniProt Q86WV6, H232R).
T2 construct: AviTag (after gg linker) (C); HRV3C cleavage site (after gs linker) (C); HIS8 (C); made in house; host or cells: Trichoplusia ni (Hi-Five) insect cells infected with baculovirus (virus generated and amplified in Sf21 cells); used as a washed membrane preparation
Briefly: 3H-cGAMP filtration binding assay (WT STING). Particulars: for EC50: competition with tritiated cGAMP, WT STING membrane; for inhibition at 20 µM: at 20,000 nM compound. The method in brief: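 Competitive filtration binding of [3H]cGAMP (16 nM working stock) to T. ni membranes overexpressing full-length WT human STING, 60 min at RT in PBS. Bound radioactivity counted after GF/B filtration; 10-point 1:3 titration, EC50 from 4-parameter fit after control normalisation.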

Test [1] concerns secretion of interferon-beta from THP1 cells. In words: IFN-β secretion in THP1 cell culture (5 h). Particulars: Homo sapiens, THP-1, 5 h, compound at 30 μM, 30 uM cGAMP = 100%, read-out: % Effect at 30 μM relative to 2′3′-cGAMP. The test is classed as cell-based. The procedure, abridged: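 Thawed THP1 cells (0.8×10^6/mL, RPMI with 0.5% FBS) exposed to compounds 1.5–30000 nM (0.3% DMSO) for 5 h at 37 °C. Supernatant IFN-β quantified by AlphaLISA. Percent effect normalised to 30 uM cGAMP and DMSO controls; EC50 from 4-parameter fit.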

T2 sequence (Q86WV6 with tags, fused parts or gaps H232R): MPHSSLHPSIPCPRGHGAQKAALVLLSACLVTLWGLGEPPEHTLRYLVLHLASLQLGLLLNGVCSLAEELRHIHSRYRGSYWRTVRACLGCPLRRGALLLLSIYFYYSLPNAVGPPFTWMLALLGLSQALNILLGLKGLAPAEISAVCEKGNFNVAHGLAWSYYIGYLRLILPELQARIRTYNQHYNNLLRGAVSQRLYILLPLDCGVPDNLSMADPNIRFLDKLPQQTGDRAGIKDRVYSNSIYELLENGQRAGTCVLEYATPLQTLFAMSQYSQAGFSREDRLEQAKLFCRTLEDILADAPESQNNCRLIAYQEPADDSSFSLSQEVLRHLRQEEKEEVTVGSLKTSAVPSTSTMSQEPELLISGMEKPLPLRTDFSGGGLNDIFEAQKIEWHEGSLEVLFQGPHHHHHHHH
T1 sequence (Q86WV6 with tags, fused parts or gaps R71H/G230A/H232R/R293Q): as the sequence (Q86WV6 with tags, fused parts or gaps H232R) above, with R71H, G230A, R293Q counted along it

`COc1cc2sc(C(=O)C[C@H](C)C(=O)O)cc2cc1CCCOc1c(OC)cc2sc(C(=O)C[C@H](C)C(=O)O)cc2c1F` [Example 37, (S)-4-(5-(3-((2-((S)-3-carboxybutanoyl)-4-fluoro-6-methoxybenzo[b]thiophen-5-yl)oxy)propyl)-6-methoxybenzo[b]thiophen-2-yl)-2-methyl-4-oxobutanoic acid]: the results for the EC50 at full-length HAQ STING and at full-length WT STING were 1 nM and 2 nM, respectively. In addition, the activation at 30 µM in test [1] came out at 76%.
For `COc1cc2sc(C(=O)CCC(=O)O)cc2cc1OCCOc1cc2cc(C(=O)CCC(=O)O)sc2cc1OC` [Example 38, 4,4′-((ethane-1,2-diylbis (oxy))bis(6-methoxybenzo [b]thiophene-5,2-diyl))bis(4-oxobutanoic acid)] the same measures were 695 nM, 1040 nM and 17%.
Taken in the same sequence, the figures for `COc1cc2sc(C(=O)CCC(=O)O)cc2cc1OCCCOc1c(OC)cc2sc(C(=O)C[C@H](C)C(=O)O)cc2c1F` [Example 39, (S)-4-(5-(3-((2-(3-carboxypropanoyl)-6-methoxybenzo [b]thiophen-5-yl)oxy)propoxy)-4-fluoro-6-methoxybenzo[b]thiophen-2-yl)-2-methyl-4-oxobutanoic acid] were 1 nM, 2 nM and 75%.
With `COc1cc2cc(C(=O)C[C@H](C)C(=O)O)sc2cc1OCCCc1nc2c(o1)c(OC)cc1sc(C(=O)C[C@H](C)C(=O)O)cc12` [Example 40, (S)-4-(6-(3-(7-((S)-3-carboxybutanoyl)-4-methoxythieno[2′,3′:5,6]benzo[1,2-d]oxazol-2-yl)propoxy)-5-methoxybenzo [b]thiophen-2-yl)-2-methyl-4-oxobutanoic acid], the values for the EC50 on full-length HAQ STING and at full-length WT STING were 86 nM and 1360 nM, respectively. Besides, the activation at 30 µM in test [1] was 27%.
On to `COc1cc2sc(C(=O)C[C@H](C)C(=O)O)cc2cc1CCCOc1cc2cc(C(=O)C[C@H](C)C(=O)O)sc2cc1OC` [Example 41, (2S)-4-{5-[3-({2-[(3S)-3-carboxybutanoyl]-6-methoxy-1-benzothiophen-5-yl}oxy)propyl]-6-methoxy-1-benzothiophen-2-yl}-2-methyl-4-oxobutanoic acid], for which the EC50 (usually the concentration needed to bring the measured effect to its halfway point) stood at 16 nM on full-length HAQ STING and 50 nM on full-length WT STING. For the same molecule, in test [1], the activation at 30 µM amounted to 117%.
Taken in the same sequence, the figures for `COc1cc2sc(C(=O)C[C@H](C)C(=O)O)cc2cc1CCOc1cc2cc(C(=O)C[C@H](C)C(=O)O)sc2cc1OC` [Example 42, (S)-4-(5-(2-(2-((S)-3-carboxybutanoyl)-6-methoxybenzo[b]thiophen-5-yl)ethoxy)-6-methoxybenzo[b]thiophen-2-yl)-2-methyl-4-oxobutanoic acid] were 6 nM, 12 nM and 67%.
As to `COc1cc2sc(C(=O)C[C@H](C)C(=O)O)cc2cc1OCCCOc1ccc2cc(C(=O)CCC(=O)O)sc2c1` [Example 43, (S)-4-(5-(3-((2-(3-carboxypropanoyl)benzo[b]thiophen-6-yl)oxy)propoxy)-6-methoxybenzo [b]thiophen-2-yl)-2-methyl-4-oxobutanoic acid], the EC50 at full-length HAQ STING came to 49 nM; on full-length WT STING, 151 nM. Moreover, in test [1], the activation at 30 µM was 69%.
Taken in the same sequence, the figures for `COc1cc2sc(C(=O)CCC(=O)O)cc2cc1CCCOc1cc2cc(C(=O)CCC(=O)O)sc2cc1OC` [Example 44, 4-(5-(3-((2-(3-carboxypropanoyl)-6-methoxybenzo[b]thiophen-5-yl)oxy)propyl)-6-methoxybenzo[b]thiophen-2-yl)-4-oxobutanoic acid] were 14 nM, 64 nM and 108%.
For `COc1cc2cc(C(=O)C[C@H](C)C(=O)O)sc2cc1OCCCOc1ccc2cc(C(=O)CCC(=O)O)sc2c1` [Example 45, (S)-4-(6-(3-((2-(3-carboxypropanoyl)benzo[b]thiophen-6-yl)oxy)propoxy)-5-methoxybenzo[b]thiophen-2-yl)-2-methyl-4-oxobutanoic acid] the same measures were 4330 nM, 14800 nM and 8%.
For `COc1cc2cc(C(=O)C[C@H](C)C(=O)O)sc2cc1OCCCOc1ccc2sc(C(=O)CCC(=O)O)cc2c1` [Example 46, (S)-4-(6-(3-((2-(3-carboxypropanoyl)benzo[b]thiophen-5-yl)oxy)propoxy)-5-methoxybenzo[b]thiophen-2-yl)-2-methyl-4-oxobutanoic acid] the same measures were 133 nM, 394 nM and 60%.
Turning to `COc1cc2cc(C(=O)C[C@H](C)C(=O)O)sc2cc1OCCCOc1cc2sc(C(=O)C[C@H](C)C(=O)O)cc2cc1OC` [Example 47, (2S,2′S)-4,4′-((propane-1,3-diylbis(oxy))bis(5-methoxybenzo[b]thiophene-6,2-diyl))bis(2-methyl-4-oxobutanoic acid)], the figures for the EC50 at full-length HAQ STING and on full-length WT STING were 14 nM and 81 nM, respectively. In addition, the activation at 30 µM in test [1] turned out to be 62%.
In the case of `COC(=O)[C@@H](C)CC(=O)c1cc2cc(OCCCOc3cc4sc(C(=O)C[C@H](C)C(=O)OC)cc4cc3OC)c(OC)cc2s1` [Example 48, methyl (S)-4-(6-methoxy-5-(3-((5-methoxy-2-((S)-4-methoxy-3-methyl-4-oxobutanoyl)benzo[b]thiophen-6-yl)oxy)propoxy)benzo[b]thiophen-2-yl)-2-methyl-4-oxobutanoate], at full-length HAQ STING, the concentration for a half-maximal effect (EC50) was found to be 12800 nM. At full-length WT STING, testing at 20 µM gave an inhibition of 43%. Moreover, the activation at 30 µM in test [1] is 22%.
For the molecule `COC(=O)[C@@H](C)CC(=O)c1cc2cc(OCCCOc3cc4cc(C(=O)C[C@H](C)C(=O)OC)sc4cc3OC)c(OC)cc2s1` [Example 49, dimethyl 4,4′-((propane-1,3-diylbis(oxy))bis(6-methoxybenzo[b]thiophene-5,2-diyl))(2S,2′S)-bis(2-methyl-4-oxobutanoate)], the inhibition (usually the share of the control response that was lost under treatment) at 20 µM at full-length HAQ STING (at 20,000 nM compound) is 44%; on full-length WT STING, 34%. Also, the activation at 30 µM in test [1] is 17%.
Regarding `COc1cc2sc(C(=O)C[C@H](C)C(=O)O)cc2c(F)c1OCCOc1c(OC)cc2sc(C(=O)C[C@H](C)C(=O)O)cc2c1F` [Example 50, (2S,2′S)-4,4′-((ethane-1,2-diylbis(oxy))bis(4-fluoro-6-methoxybenzo[b]thiophene-5,2-diyl))bis(2-methyl-4-oxobutanoic acid)], the EC50 at full-length HAQ STING and on full-length WT STING was 1 nM each time. The activation at 30 µM in test [1] was found to be 44%.
Turning to `COc1cc2sc(C(=O)C[C@H](C)C(=O)O)cc2cc1OCCCOc1cc2sc(C(=O)C[C@H](C)C(=O)O)cc2cc1OC` [Example 51], the EC50 on full-length HAQ STING stood at 3 nM; on full-length WT STING, 8 nM. In addition, the activation at 30 µM in test [1] worked out at 43%.
As to `COc1cc2sc(C(=O)C[C@H](C)C(=O)O)cc2cc1OCCCOc1cc2cc(C(=O)C[C@H](C)C(=O)O)sc2cc1OC` [Example 52, (2S,2′S)-4,4′-((propane-1,3-diylbis(oxy))bis(6-methoxybenzo[b]thiophene-5,2-diyl))bis(2-methyl-4-oxobutanoic acid)], the results for the EC50 on full-length HAQ STING and at full-length WT STING were 2 nM and 4 nM, respectively. For the same molecule, the activation at 30 µM in test [1] was found to be 53%.
For `COc1cc2cc(C(=O)C[C@H](C)C(=O)O)sc2cc1OCCOc1ccc2sc(C(=O)CCC(=O)O)cc2c1` [Example 53, (S)-4-(6-(2-((2-(3-carboxypropanoyl)benzo[b]thiophen-5-yl)oxy)ethoxy)-5-methoxybenzo[b]thiophen-2-yl)-2-methyl-4-oxobutanoic acid] the same measures were 146 nM, 713 nM and 23%.
On to `COc1cc2sc(C(=O)C[C@H](C)C(=O)O)cc2cc1OCCOc1ccc2sc(C(=O)CCC(=O)O)cc2c1` [Example 54, (S)-4-(5-(2-((2-(3-carboxypropanoyl)benzo[b]thiophen-5-yl)oxy)ethoxy)-6-methoxybenzo[b]thiophen-2-yl)-2-methyl-4-oxobutanoic acid], for which the EC50 at full-length HAQ STING was 804 nM; on full-length WT STING, 3080 nM. In addition, in test [1], the activation at 30 µM came out at 9%.
Taken in the same sequence, the figures for `COc1cc2sc(C(=O)C[C@H](C)C(=O)O)cc2cc1OCCCOc1ccc2sc(C(=O)CCC(=O)O)cc2c1` [Example 55, (S)-4-(5-(3-((2-(3-carboxypropanoyl)benzo[b]thiophen-5-yl)oxy)propoxy)-6-methoxybenzo[b]thiophen-2-yl)-2-methyl-4-oxobutanoic acid] were 14 nM, 48 nM and 53%.
